Measured values as given in US20240299360A1, “ADAMTS INHIBITORS, PREPARATION METHODS AND MEDICINAL USES THEREOF” (Jiangsu Hengrui Pharmaceuticals Co., Ltd., priority 2020, published 2024).

Legend:
[1] = target: T1, ADAMTS-5 recombinant protein (Homo sapiens (Human), UniProt Q9UNA0); experiment: In vitro fluorescence (FRET-peptide) enzymatic assay of ADAMTS-5 activity; type: biochemical; conditions: FRET peptide substrate 8 μM, 10 nM enzyme, 37° C. 3 hours
Procedure, shortened: (§1)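 Enzyme (10 nM final) was preincubated with compound for 15 min at room temperature in 50 mM HEPES pH 7.5, 100 mM NaCl, 5 mM CaCl2, 0.1% CHAPS, 5% glycerol. FRET peptide was then added (15 μM for ADAMTS-4, 8 μM for ADAMTS-5), and fluorescence (Ex 490/Em 520 nm) was read after 3 h at 37° C. IC50 was derived from four-parameter fits.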

[2] = system: mouse femoral head cartilage; experiment: Mouse explant assay (IL-1α induced GAG release); type: cell-based; conditions: inhibition of GAG release, IL-1α 1 ng/ml, 72 hours; for inhibition at 2 µM: compound 2 μM; for inhibition at 20 µM: compound 20 μM
Experimental: In this assay, fresh mouse femoral head cartilage was treated with IL-1α protein (Sigma-Aldrich, catalog #12778) in culture media, which induces the cartilage catabolism. Then, the GAGs attached to the cleaved aggrecan fragments (released in the media) and the GAGs attached to the intact aggrecan were measured by dimethylmethylene blue dye in the Glycosaminoglycans Assay Kit (Chondrex, catalog #6022).
Femoral head cartilage samples were isolated from mice (25 days old, male, C57BL/6, from Charles River Lab) and put into 2.0 ml tubes filled-up with media (DMEM, 10% FBS, 4 mM Glutamine, penicillin-streptomycin, 20 mM HEPES). Two hundred μl of media without FBS was added to each well of a 48-well plate, and one piece of cartilage was transferred to a well in the plate. Then the media was aspirated, and compounds and IL-1α protein were added to the plate in a total volume of 400 μl of fresh media without FBS. The final concentration of IL-1α was 1 ng/ml. The plate was incubated at 37° C. for 72 hours in a humidified incubator with 5% CO2 supply.
The supernatant was transferred to a 1.5 ml tube and kept at −20° C. Each cartilage sample was transferred to another 1.5 ml tube containing 400 μl of freshly made papain solution. The papain solution contained 125 μg/ml papain (Sigma-Aldrich, catalog #P3125), 0.1 M sodium acetate (Sigma-Aldrich, catalog #S7899), pH 5.5 and 5 mM EDTA and 5 mM L-cysteine-HCl (Sigma-Aldrich, catalog #C7880). The cartilage samples were kept rocking in a 60° C. water bath for 24 hours. The lysates were vortexed for 10 seconds and spinned at 10,000 rpm for 2 minutes.
Both the supernatant and the lysate samples were diluted with PBS and mixed with 100 μl of dye from the Glycosaminoglycans Assay Kit. The optical density from each well was determined with a TECAN plate reader set to a wavelength of 525 nm.
The concentrations of GAGs in the supernatant and lysates were determined based on the standard curve with a dose range of chondroitin sulfate provided in the kit. The percentage of GAG release was calculated as the following
The test compound effect was expressed as the percent of inhibition using the following formula: […]

[3] = target: T1, ADAMTS-5 recombinant protein; experiment: In vitro ELISA of ADAMTS-5 activity (Aggrecan-IGD enzymatic assay); type: biochemical; conditions: aggrecan-IGD substrate, ARGSVIL-peptide ELISA, 37° C. 45 minutes
Procedure, shortened: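 Recombinant ADAMTS-5 (0.3 nM diluted) was preincubated with compound 15 min at room temperature in 50 mM HEPES pH 7.5, 100 mM NaCl, 5 mM CaCl2, 0.1% CHAPS, 5% glycerol. Aggrecan-IGD substrate (T331-G458, His-tagged; 100 nM diluted) was then added for 45 min at 37 °C. ARGSVIL neoepitope was quantified by ELISA (A450) against a 4PL standard curve, and IC50 came from a four-parameter fit.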

[4] = target: ADAMTS-4 recombinant protein (Homo sapiens (Human), UniProt O75173); experiment: In vitro fluorescence (FRET-peptide) enzymatic assay of ADAMTS-4 activity; type: biochemical; conditions: FRET peptide substrate 15 μM, 10 nM enzyme, 37° C. 3 hours
Procedure, shortened: as §1

Sequence of ADAMTS-4 recombinant protein (O75173 213-685): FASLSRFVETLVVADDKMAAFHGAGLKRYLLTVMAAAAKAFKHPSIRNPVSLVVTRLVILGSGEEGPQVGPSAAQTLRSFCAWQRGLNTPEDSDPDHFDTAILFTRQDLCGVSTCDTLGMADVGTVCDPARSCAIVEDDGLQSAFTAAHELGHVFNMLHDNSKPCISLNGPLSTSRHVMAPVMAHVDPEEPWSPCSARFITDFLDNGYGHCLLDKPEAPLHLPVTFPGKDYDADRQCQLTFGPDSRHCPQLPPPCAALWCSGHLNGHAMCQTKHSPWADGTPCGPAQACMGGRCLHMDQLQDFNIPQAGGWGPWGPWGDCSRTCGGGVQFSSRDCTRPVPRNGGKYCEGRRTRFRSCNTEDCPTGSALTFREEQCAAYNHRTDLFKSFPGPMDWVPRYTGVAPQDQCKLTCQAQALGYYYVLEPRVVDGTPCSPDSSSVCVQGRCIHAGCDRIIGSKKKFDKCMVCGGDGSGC
T1 sequence (Q9UNA0 262-622): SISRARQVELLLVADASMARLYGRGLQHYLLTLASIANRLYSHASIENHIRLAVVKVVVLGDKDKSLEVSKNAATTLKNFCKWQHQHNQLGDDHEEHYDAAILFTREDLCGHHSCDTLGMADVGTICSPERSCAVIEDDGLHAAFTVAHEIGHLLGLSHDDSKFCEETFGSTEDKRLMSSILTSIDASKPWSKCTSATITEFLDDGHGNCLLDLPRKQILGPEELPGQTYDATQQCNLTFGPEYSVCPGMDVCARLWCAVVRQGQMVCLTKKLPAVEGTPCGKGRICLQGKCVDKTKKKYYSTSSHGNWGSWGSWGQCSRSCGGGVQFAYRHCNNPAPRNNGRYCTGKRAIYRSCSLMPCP

## O=C1NC(=O)C(CC(CO)C(=O)N2Cc3cc(Cl)c(Cl)cc3C2)(C2CC2)N1 (stereo not shown) [Example 42, 5-cyclopropyl-5-(3-(5,6-dichloroisoindolin-2-yl)-2-(hydroxymethyl)-3-oxopropyl)imidazolidine-2,4-dione]
[1]
  IC50: 14 nM
[2]
  inhibition at 2 µM: 51%
  inhibition at 20 µM: 92%
[3]
  IC50: 17 nM
[4]
  IC50: 11 nM

## O=C1NC(=O)[C@](CCC(=O)N2CCc3ccccc3CC2)(C2CC2)N1 [Example 9, (S)-5-cyclopropyl-5-(3-(4,5-dihydro-1H-benzo[d]azepin-3 (2H)-yl)-3-oxopropyl)imidazolidine-2,4-dione]
[1]
  IC50: 37 nM
[2]
  inhibition at 2 µM: 22%
  inhibition at 20 µM: 55%
[3]
  IC50: 56 nM
[4]
  IC50: 42 nM

## O=C1NC(=O)[C@](CCC(=O)N2CCc3ccc(C(F)(F)F)cc3CC2)(C2CC2)N1 [Example 45, (S)-5-cyclopropyl-5-(3-oxo-3-(7-(trifluoromethyl)-1,2,4,5-tetrahydro-3H-benzo[d]azepin-3-yl)propyl)imidazolidine-2,4-dione]
[1]
  IC50: 12 nM
[2]
  inhibition at 2 µM: 45%
  inhibition at 20 µM: 96%
[3]
  IC50: 25 nM
[4]
  IC50: 19 nM

## COc1ccc2c(c1)CCN(C(=O)CC[C@@]1(C3CC3)NC(=O)NC1=O)CC2 [Example 5, (S)-5-cyclopropyl-5-(3-(7-methoxy-4,5-dihydro-1H-benzo [d]azepin-3 (2H)-yl)-3-oxopropyl)imidazolidine-2,4-dione]
[1]
  IC50: 73 nM
[2]
  inhibition at 2 µM: 19%
  inhibition at 20 µM: 51%
[3]
  IC50: 240 nM
[4]
  IC50: 46 nM

## O=C1NC(=O)[C@](CCC(=O)N2Cc3cc(Br)c(C(F)(F)F)cc3C2)(C2CC2)N1 [Example 59, (S)-5-(3-(5-bromo-6-(trifluoromethyl)isoindolin-2-yl)-3-oxopropyl)-5-cyclopropylimidazolidine-2,4-dione]
[1]
  IC50: 46 nM
[2]
  inhibition at 2 µM: 16%
  inhibition at 20 µM: 66%
[3]
  IC50: 46 nM
[4]
  IC50: 82 nM

## O=C1NC(=O)[C@](CCC(=O)N2CCc3ccc(F)cc3CC2)(C2CC2)N1 [Example 44, (S)-5-cyclopropyl-5-(3-(7-fluoro-1,2,4,5-tetrahydro-3H-benzo[d]azepin-3-yl)-3-oxopropyl)imidazolidine-2,4-dione]
[1]
  IC50: 37 nM
[2]
  inhibition at 2 µM: 13%
  inhibition at 20 µM: 70%
[3]
  IC50: 51 nM
[4]
  IC50: 15 nM

## O=C1NC(=O)[C@](CCC(=O)N2Cc3ccc(C(F)(F)F)cc3C2)(C2CC2)N1 [Example 1, (S)-5-cyclopropyl-5-(3-oxo-3-(5-(trifluoromethyl)isoindolin-2-yl)propyl)imidazolidine-2,4-dione]
[1]
  IC50: 88 nM
[2]
  inhibition at 2 µM: 27%
  inhibition at 20 µM: 61%
[3]
  IC50: 140 nM
[4]
  IC50: 60 nM

## O=C1NC(=O)[C@](CCC(=O)N2Cc3ccc(C(F)F)cc3C2)(C2CC2)N1 [Example 52, (S)-5-cyclopropyl-5-(3-(5-(difluoromethyl)isoindolin-2-yl)-3-oxopropyl)imidazolidine-2,4-dione]
[1]
  IC50: 66 nM
[2]
  inhibition at 2 µM: 10%
  inhibition at 20 µM: 48%
[3]
  IC50: 48 nM
[4]
  IC50: 30 nM
